The assay deals with T1, IBD (ItcR itaconate-binding domain) (Yersinia pseudotuberculosis, UniProt A0A0H3B558).
T1 construct: gene YPK_2265
As to conditions: protein:itaconate molar ratio 1:100, Bis-Tris pH 6.5, PEG300, 20 °C; SeMet form 7W06.

T1 sequence (A0A0H3B558 80-292 limits assumed): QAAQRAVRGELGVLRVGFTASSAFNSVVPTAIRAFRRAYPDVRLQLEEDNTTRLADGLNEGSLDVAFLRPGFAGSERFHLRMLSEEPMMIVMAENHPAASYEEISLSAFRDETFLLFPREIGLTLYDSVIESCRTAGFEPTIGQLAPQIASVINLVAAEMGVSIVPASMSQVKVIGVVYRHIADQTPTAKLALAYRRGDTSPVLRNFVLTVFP

On to `C=C(CC(=O)O)C(=O)O` [itaconate], for which the structure of complex entry is given as “crystal structure of IBD without or with itaconate binding was determined”.
